From patent US10799507B2, “5-(7H-pyrrolo[2,3-d]pyrimidin-4-yl)-5-azaspiro[2.5]octane-8-carboxylic acid derivatives as novel JAK kinase inhibitors” (LEO Pharma A/S, priority 2017, dated 2020)

What was measured:
JAK2 = JAK2 (Homo sapiens (Human), UniProt O60674); assay: JAK kinase assay (HTRF), JAK2; format: biochemical; settings: catalytic domain, ATP at Km (4 μM)
Method in brief: (§1)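 Catalytic-domain human JAK1 (GST-tagged, aa 850-1154) or His-tagged JAK2, baculovirus-expressed, phosphorylated 1 µM biotinylated TK peptide at Km ATP (JAK1 7 µM, 10 mM MgCl2, 50 nM SEB; JAK2 4 µM, 5 mM MgCl2) in pH 7.0 Hepes, 20-30 min RT. EDTA stop; overnight streptavidin-XL665/cryptate HTRF read.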

JAK3 = JAK3 (Homo sapiens (Human), UniProt P52333); assay: JAK kinase assay (HTRF), JAK3; format: biochemical; settings: catalytic domain, ATP at Km (2 μM)
Chain of JAK3 (P52333 822-1111): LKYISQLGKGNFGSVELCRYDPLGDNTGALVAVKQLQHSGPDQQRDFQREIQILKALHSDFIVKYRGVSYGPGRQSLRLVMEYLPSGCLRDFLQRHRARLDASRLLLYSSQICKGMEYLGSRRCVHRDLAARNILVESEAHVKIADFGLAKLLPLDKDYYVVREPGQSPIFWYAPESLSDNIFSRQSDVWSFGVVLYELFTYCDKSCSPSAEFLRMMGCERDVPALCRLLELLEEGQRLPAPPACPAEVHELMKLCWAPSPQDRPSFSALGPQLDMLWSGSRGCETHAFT
Method in brief: (§2)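 Catalytic-domain human kinases, GST-tagged TYK2 (aa 871-1187) and His-tagged JAK3, phosphorylate 1 μM TK Substrate-Biotin for 20-30 min at RT in 50 mM Hepes pH 7.0, 5 mM MgCl2, ATP at Km (TYK2 13 μM with 50 nM SEB; JAK3 2 μM). Phosphorylation detected by HTRF.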

[1] = in vitro metabolic stability in human liver microsomes; format: in vitro ADME; settings: human, liver microsomes, 0.5 μM compound, 0.5 mg/mL microsomes, NADPH, 40 min, 37° C.; read-out: Human liver microsome Clapp (apparent intrinsic clearance)
Method in brief: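 Compounds at 0.5 μM incubated in duplicate with human liver microsomes (0.5 mg/mL), phosphate buffer and NADPH at 37 °C for 40 min, sampled at 0, 5, 10, 20, 40 min into cold acetonitrile. LC-TOF-MS depletion gave elimination rate constant, from which apparent intrinsic clearance (Clapp) was calculated.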

JAK1 = JAK1 (Homo sapiens (Human), UniProt P23458); assay: JAK kinase assay (HTRF), JAK1; format: biochemical; settings: catalytic domain, ATP at Km (7 μM)
Chain of JAK1 (P23458 850-1154): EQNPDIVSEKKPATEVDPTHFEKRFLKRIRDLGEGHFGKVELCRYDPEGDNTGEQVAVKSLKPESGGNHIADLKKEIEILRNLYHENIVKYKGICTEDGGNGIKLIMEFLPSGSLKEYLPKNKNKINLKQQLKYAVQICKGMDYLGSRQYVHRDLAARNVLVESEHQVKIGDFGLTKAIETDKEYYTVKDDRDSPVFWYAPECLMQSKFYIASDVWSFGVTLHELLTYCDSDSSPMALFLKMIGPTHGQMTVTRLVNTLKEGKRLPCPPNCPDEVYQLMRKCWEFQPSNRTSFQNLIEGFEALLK
Method in brief: as §1

TYK2 = TYK2 (Homo sapiens (Human), UniProt P29597); assay: JAK kinase assay (HTRF), TYK2; format: biochemical; settings: catalytic domain, ATP at Km (13 μM)
Chain of TYK2 (P29597 871-1187): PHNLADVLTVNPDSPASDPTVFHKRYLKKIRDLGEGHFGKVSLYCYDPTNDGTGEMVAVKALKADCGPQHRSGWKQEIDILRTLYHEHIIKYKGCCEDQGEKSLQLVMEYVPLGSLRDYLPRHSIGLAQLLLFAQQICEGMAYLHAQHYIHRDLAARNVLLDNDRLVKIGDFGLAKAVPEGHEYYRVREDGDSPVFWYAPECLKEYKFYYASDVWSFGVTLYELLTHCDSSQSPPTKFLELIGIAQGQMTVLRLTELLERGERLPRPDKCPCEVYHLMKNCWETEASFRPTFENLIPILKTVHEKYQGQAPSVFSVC
Method in brief: as §2

Chain of JAK2 (O60674 849-1124): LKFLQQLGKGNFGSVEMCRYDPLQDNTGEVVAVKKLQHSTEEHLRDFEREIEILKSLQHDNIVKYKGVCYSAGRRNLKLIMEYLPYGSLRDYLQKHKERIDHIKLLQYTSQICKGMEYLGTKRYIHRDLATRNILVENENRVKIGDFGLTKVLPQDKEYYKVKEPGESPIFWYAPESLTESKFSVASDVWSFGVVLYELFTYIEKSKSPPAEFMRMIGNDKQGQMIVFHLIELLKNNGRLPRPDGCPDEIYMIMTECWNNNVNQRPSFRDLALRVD

| SMILES | EC50 (JAK2) [nM] | EC50 (JAK3) [nM] | CLint scaled at 0.5 μM [1] [L/h/kg] | EC50 (JAK1) [nM] | EC50 (TYK2) [nM] |
| --- | --- | --- | --- | --- | --- |
| O=C(OCC1(CO)CC(F)(F)C1)[C@H]1CCN(c2ncnc3[nH]ccc23)CC12CC2 [Example 160, [3,3-difluoro-1-(hydroxymethyl)cyclobutyl]methyl (8S)-5-(7H-pyrrolo[2,3-d]pyrimidin-4-yl)-5-azaspiro[2.5]octane-8-carboxylate] | 0.8 | 1.8 | 7.26 | 0.3 | 3.7 |
| O=C(OCC1CC(F)(F)C1)[C@@H]1CCN(c2ncnc3[nH]ccc23)CC12CC2 [Example 155, (3,3-difluorocyclobutyl)methyl (8R)-5-(7H-pyrrolo[2,3-d]pyrimidin-4-yl)-5-azaspiro[2.5]octane-8-carboxylate] | 58 | 144 | > 12 | 30 | 1280 |
| O=C(NC[C@H](O)C1CCCC1)[C@H]1CCN(c2ncnc3[nH]ccc23)CC12CC2 [Example 11, (8S)-N-[(2R)-2-cyclopentyl-2-hydroxy-ethyl]-5-(7H-pyrrolo[2,3-d]pyrimidin-4-yl)-5-azaspiro[2.5]octane-8-carboxamide] | 2.1 | 6.7 | 8.88 | 0.8 | 18.2 |
| N#Cc1ccc([C@H](CO)NC(=O)[C@H]2CCN(c3ncnc4[nH]ccc34)CC23CC3)cc1 [Example 18, (8S)-N-[(1R)-1-(4-cyanophenyl)-2-hydroxy-ethyl]-5-(7H-pyrrolo[2,3-d]pyrimidin-4-yl)-5-azaspiro[2.5]octane-8-carboxamide] | 3.5 | 7.5 | 2.64 | 1 | 45.5 |
| C[C@H](NC(=O)[C@H]1CCN(c2ncnc3[nH]ccc23)CC12CC2)[C@@H](O)c1ccc(C#N)cc1 [Example 43, (8S)-N-[(1S,2S)-2-(4-cyanophenyl)-2-hydroxy-1-methyl-ethyl]-5-(7H-pyrrolo[2,3-d]pyrimidin-4-yl)-5-azaspiro[2.5]octane-8-carboxamide] | 5.2 | 8.8 | 9.96 | 2.8 | 131 |
| O=C(NC[C@H](O)c1ccccc1)C1CCN(c2ncnc3[nH]ccc23)CC12CC2 (stereo partly drawn) [Example 103, N-[(2R)-2-hydroxy-2-phenyl-ethyl]-5-(7H-pyrrolo[2,3-d]pyrimidin-4-yl)-5-azaspiro[2.5]octane-8-carboxamide] | 21.4 | 40.6 | 7.68 | 9.9 | 509 |
| N#CCC1(COC(=O)[C@H]2CCN(c3ncnc4[nH]ccc34)CC23CC3)CC1 [Example 163, [1-(cyanomethyl)cyclopropyl]methyl (8S)-5-(7H-pyrrolo[2,3-d]pyrimidin-4-yl)-5-azaspiro[2.5]octane-8-carboxylate] | 3.8 | 13 | > 12 | 3.1 | 25 |
| N#Cc1ccc(CNC(=O)[C@H]2CCN(c3ncnc4[nH]ccc34)CC23CC3)cc1F [Example 16, (8S)-N-[(4-cyano-3-fluoro-phenyl)methyl]-5-(7H-pyrrolo[2,3-d]pyrimidin-4-yl)-5-azaspiro[2.5]octane-8-carboxamide] | 3.6 | 7.1 | 10.8 | 1 | 44.3 |
| C[C@H](NC(=O)C1CCN(c2ncnc3[nH]ccc23)CC12CC2)c1ccc(C#N)cc1 (stereo partly drawn) [Example 21, N-[(1S)-1-(4-cyanophenyl)ethyl]-5-(7H-pyrrolo[2,3-d]pyrimidin-4-yl)-5-azaspiro[2.5]octane-8-carboxamide] | 2.5 | 7.7 | 10.2 | 1.1 | 52.1 |
| N#Cc1ccc(CNC(=O)C2CCN(c3ncnc4[nH]ccc34)CC23CC3)cc1 (stereo not drawn) [Example 26, N-[(4-cyanophenyl)methyl]-5-(7H-pyrrolo[2,3-d]pyrimidin-4-yl)-5-azaspiro[2.5]octane-8-carboxamide] | 6.4 | 11.2 | 4.68 | 1.4 | 196 |
| O=C(OCC1CC(F)(F)C1)[C@H]1CCN(c2ncnc3[nH]ccc23)CC12CC2 [Example 154, (3,3-difluorocyclobutyl)methyl (8S)-5-(7H-pyrrolo[2,3-d]pyrimidin-4-yl)-5-azaspiro[2.5]octane-8-carboxylate] | 1.7 | 5.1 | 8.94 | 0.9 | 15.7 |
| O=C(NC[C@@H](O)c1ccc(F)cn1)[C@H]1CCN(c2ncnc3[nH]ccc23)CC12CC2 [Example 12, (8S)-N-[(2R)-2-(5-fluoro-2-pyridyl)-2-hydroxy-ethyl]-5-(7H-pyrrolo[2,3-d]pyrimidin-4-yl)-5-azaspiro[2.5]octane-8-carboxamide] | 4 | 26.5 | 8.58 | 0.8 | 13.9 |
| O=C(NCC1(O)CCCC1)[C@H]1CCN(c2ncnc3[nH]ccc23)CC12CC2 [Example 49, (8S)-N-[(1-hydroxycyclopentyl)methyl]-5-(7H-pyrrolo[2,3-d]pyrimidin-4-yl)-5-azaspiro[2.5]octane-8-carboxamide] | 15.1 | 26.1 | 2.1 | 3.4 | 43.4 |
| O=C(NC[C@@H](O)C1CCCCC1)[C@H]1CCN(c2ncnc3[nH]ccc23)CC12CC2 [Example 4, (8S)-N-[(2S)-2-cyclohexyl-2-hydroxy-ethyl]-5-(7H-pyrrolo[2,3-d]pyrimidin-4-yl)-5-azaspiro[2.5]octane-8-carboxamide] | 1.2 | 3.4 | > 12 | 0.5 | 4 |
| O=C(NC[C@@H](O)c1ccc(F)cc1)[C@H]1CCN(c2ncnc3[nH]ccc23)CC12CC2 [Example 7, (8S)-N-[(2S)-2-(4-fluorophenyl)-2-hydroxy-ethyl]-5-(7H-pyrrolo[2,3-d]pyrimidin-4-yl)-5-azaspiro[2.5]octane-8-carboxamide] | 1.7 | 8.8 | > 12 | 0.6 | 4.9 |
| O=C(NCC1(O)CCCCC1)[C@H]1CCN(c2ncnc3[nH]ccc23)CC12CC2 [Example 74, (8S)-N-[(1-hydroxycyclohexyl)methyl]-5-(7H-pyrrolo[2,3-d]pyrimidin-4-yl)-5-azaspiro[2.5]octane-8-carboxamide] | 15.3 | 23.2 | 2.22 | 6.1 | 55.7 |
| N#Cc1ccc([C@@H](O)CNC(=O)[C@H]2CCN(c3ncnc4[nH]ccc34)CC23CC3)nc1 [Example 36, (8S)-N-[(2S)-2-(5-cyano-2-pyridyl)-2-hydroxy-ethyl]-5-(7H-pyrrolo[2,3-d]pyrimidin-4-yl)-5-azaspiro[2.5]octane-8-carboxamide] | 8.7 | 25.2 | 4.32 | 2 | 70.5 |
| O=C(NCC1(CO)CCCC1)[C@H]1CCN(c2ncnc3[nH]ccc23)CC12CC2 [Example 52, (8S)-N-[[1-(hydroxymethyl)cyclopentyl]methyl]-5-(7H-pyrrolo[2,3-d]pyrimidin-4-yl)-5-azaspiro[2.5]octane-8-carboxamide] | 10.2 | 22.8 | 7.08 | 3.6 | 38 |
